Results on 13 compounds are retold here after PubChem BioAssay (NCI).

Among the test systems are OVCAR-5 ovarian; OVCAR-3 ovarian; HOP-62 NSCLC; COLO 205 colon; HCT-116 colon; IGROV1 ovarian; UACC-257 melanoma; HL-60(TB) leukemia; SK-OV-3 ovarian; CAKI-1 renal.
What all share (test): NCI anticancer screen, dose series, 48 h

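Step 1: Grow cells in 96-well plates. Step 2: Expose to compound for 48 hours at 5 concentrations. Step 3: Interpolate endpoints linearly; if unreached, use highest concentration. GI50: concentration for 50% inhibition of growth. At the TGI there is no net growth.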

Consider `CCn1c(=O)c(-c2ccn[nH]2)cc2c(C)nc(N)nc21`, for which the GI50 was 0.539 µM with OVCAR-5 ovarian; 1.15 µM with OVCAR-3 ovarian; 0.575 µM in the assay on HOP-62 NSCLC; 1.78 µM in the assay on COLO 205 colon; 2.36 µM in the assay on HCT-116 colon; 0.32 µM in the assay on IGROV1 ovarian. In addition, the GI50 is 1.38 µM in the assay on UACC-257 melanoma, 2.88 µM in the assay on HL-60(TB) leukemia and 0.698 µM in the assay with SK-OV-3 ovarian. For the same compound, the TGI was 10.6 µM with OVCAR-5 ovarian; greater than 100 µM in the assay on OVCAR-3 ovarian; 5.91 µM in the assay with HOP-62 NSCLC; 10.4 µM in the assay with COLO 205 colon; greater than 100 µM in the assay on HCT-116 colon; 2.17 µM in the assay with IGROV1 ovarian. Besides, the results for the TGI with UACC-257 melanoma, in the assay with HL-60(TB) leukemia and with SK-OV-3 ovarian were 6.24 µM, greater than 100 µM and 3.4 µM, respectively.
Regarding `CCNc1nnc(CSc2nc(-c3ccccc3)c(-c3ccccc3)[nH]2)s1`, the TGI is 39.8 µM in the assay on OVCAR-5 ovarian; 37.1 µM with OVCAR-3 ovarian; 35.7 µM in the assay on HOP-62 NSCLC; 51.2 µM in the assay on COLO 205 colon; 38.8 µM in the assay with HCT-116 colon; 34.9 µM in the assay on UACC-257 melanoma. For the same compound, the TGI with HL-60(TB) leukemia was 37 µM; in the assay on SK-OV-3 ovarian it was 41.7 µM.
Consider `CN(C)/[N+]([O-])=N/Oc1cc(Nc2cccc(C(=O)O)c2)c([N+](=O)[O-])cc1[N+](=O)[O-]`, for which the GI50 was greater than 100 µM with OVCAR-5 ovarian; 5.45 µM in the assay on OVCAR-3 ovarian; greater than 100 µM in the assay on CAKI-1 renal; 32.2 µM in the assay with HOP-62 NSCLC; greater than 100 µM in the assay with COLO 205 colon; 34.5 µM with HCT-116 colon. Further, the GI50 is 41.1 µM in the assay on IGROV1 ovarian, greater than 100 µM with UACC-257 melanoma and 52.2 µM in the assay on HL-60(TB) leukemia. Besides, the TGI was greater than 100 µM with OVCAR-5 ovarian; 22.7 µM in the assay with OVCAR-3 ovarian; greater than 100 µM in the assay with CAKI-1 renal; greater than 100 µM in the assay on HOP-62 NSCLC; greater than 100 µM in the assay with COLO 205 colon; greater than 100 µM with HCT-116 colon. Moreover, the TGI in the assay on IGROV1 ovarian, in the assay on UACC-257 melanoma and in the assay on HL-60(TB) leukemia was greater than 100 µM each time.
Consider `COc1cccc(N2C(=O)c3c(c4[nH]c5ccccc5c4c4ccc(C(C)(C)C)cc34)C2=O)c1`, for which the TGI in the assay with OVCAR-5 ovarian, in the assay with OVCAR-3 ovarian, with CAKI-1 renal, in the assay on HOP-62 NSCLC, in the assay on COLO 205 colon and with HCT-116 colon was greater than 100 µM in each case. Also, the TGI in the assay with IGROV1 ovarian, in the assay on UACC-257 melanoma and with SK-OV-3 ovarian was greater than 100 µM in each case.
For `CC[C@@H]1C[C@@H]2CN3CCc4c([nH]c5ccc(OC)cc45)C(COC(=O)c4ccc(OC)c(OC)c4)(C2)C13`, the TGI in the assay with OVCAR-5 ovarian is greater than 100 µM; in the assay on OVCAR-3 ovarian it was greater than 100 µM; with CAKI-1 renal, greater than 100 µM; with HOP-62 NSCLC it was 93 µM; in the assay on COLO 205 colon, greater than 100 µM; in the assay with HCT-116 colon, 44 µM. For the same compound, the TGI in the assay on IGROV1 ovarian is 74.5 µM; in the assay on UACC-257 melanoma, 37.8 µM; in the assay with HL-60(TB) leukemia, 39.2 µM.
On to `COc1cc(Nc2cnc3cc(C(F)(F)F)ccc3n2)cc(OC)c1OC`, for which the TGI in the assay with OVCAR-5 ovarian, in the assay with OVCAR-3 ovarian, in the assay on HOP-62 NSCLC, with COLO 205 colon, with HCT-116 colon and in the assay with UACC-257 melanoma was greater than 100 µM in each case. The TGI in the assay on HL-60(TB) leukemia and in the assay on SK-OV-3 ovarian was greater than 100 µM in each case.
For `C/C(=N\NC(=S)N1CCCCCC1)c1nccnc1C`, the TGI is greater than 100 µM in the assay on OVCAR-5 ovarian; greater than 100 µM in the assay with CAKI-1 renal; greater than 100 µM with HOP-62 NSCLC; 1.77 µM in the assay on UACC-257 melanoma; 2.95 µM with HL-60(TB) leukemia.
On to `CCCCCCCCCCCCCS(=O)(=O)O`, for which the TGI with OVCAR-5 ovarian, with OVCAR-3 ovarian, in the assay with HOP-62 NSCLC, with COLO 205 colon, in the assay on HCT-116 colon and in the assay on IGROV1 ovarian was greater than 100 µM throughout. Moreover, the TGI in the assay with UACC-257 melanoma and with HL-60(TB) leukemia was greater than 100 µM each time.
In the case of `Oc1ccc(C(c2ccccc2)(c2ccccc2)c2ccccc2)cc1`, the GI50 with OVCAR-5 ovarian was 14.4 µM; in the assay on OVCAR-3 ovarian it was 16.6 µM; in the assay on CAKI-1 renal it was 14 µM; in the assay with HOP-62 NSCLC, 17.6 µM; in the assay on COLO 205 colon, 15.5 µM; in the assay with HCT-116 colon it was 12.9 µM. The GI50 with IGROV1 ovarian is 14.3 µM; with UACC-257 melanoma it was 15.5 µM; in the assay on SK-OV-3 ovarian, 16.3 µM. Besides, the TGI worked out at 28.1 µM in the assay on OVCAR-5 ovarian; 37.6 µM in the assay on OVCAR-3 ovarian; 29.6 µM in the assay on CAKI-1 renal; 31.5 µM in the assay with HOP-62 NSCLC; 29.8 µM in the assay on COLO 205 colon; 26.1 µM with HCT-116 colon. Further, the TGI with IGROV1 ovarian stood at 27.6 µM; in the assay on UACC-257 melanoma, 31.3 µM; in the assay on SK-OV-3 ovarian, 30 µM.
As to `Cc1ccc(NC(=O)c2[nH]c(=S)nc(N)c2-c2ccccc2C)cc1C`, the TGI with OVCAR-5 ovarian, in the assay with OVCAR-3 ovarian, in the assay with CAKI-1 renal, in the assay on COLO 205 colon, with HCT-116 colon and with IGROV1 ovarian was greater than 100 µM in each case. The TGI with UACC-257 melanoma and in the assay on SK-OV-3 ovarian was greater than 100 µM in each case.
Regarding `CN(C)CCNC(=O)c1ccc(Nc2nc3ccccc3c3occc23)cc1`, the GI50 in the assay on OVCAR-5 ovarian is 11.8 µM; with OVCAR-3 ovarian, 2.4 µM; with CAKI-1 renal, 2.18 µM; in the assay with HOP-62 NSCLC it was 3.35 µM; with COLO 205 colon, 22.6 µM; in the assay on HCT-116 colon, 1.66 µM. Further, the GI50 in the assay with IGROV1 ovarian is 2.18 µM; in the assay with SK-OV-3 ovarian it was 19.3 µM. Moreover, the TGI in the assay on OVCAR-5 ovarian was determined as 24.6 µM; in the assay with OVCAR-3 ovarian, 7.87 µM; in the assay on CAKI-1 renal, 4.95 µM; with HOP-62 NSCLC, 8.16 µM; with COLO 205 colon it was 59.7 µM; in the assay on HCT-116 colon it was 3.02 µM. Besides, the TGI in the assay on IGROV1 ovarian came to 10.3 µM; with SK-OV-3 ovarian, 37.2 µM.
For the compound `O=C1NC(=O)C(C(=O)C(=O)Nc2ccc(Br)cc2)C(=O)N1`, the TGI in the assay on OVCAR-3 ovarian, in the assay with COLO 205 colon, in the assay on HCT-116 colon, with IGROV1 ovarian, with UACC-257 melanoma and in the assay on HL-60(TB) leukemia was greater than 100 µM throughout. Also, in the assay on SK-OV-3 ovarian, the TGI is greater than 100 µM.
With `CC(Cn1c2c3ccccc3ccc2c2oc(=O)c3ccccc3c21)N(C)C` (stereo not given), the TGI with OVCAR-5 ovarian, in the assay on OVCAR-3 ovarian, with CAKI-1 renal, in the assay on COLO 205 colon, with HCT-116 colon and in the assay on IGROV1 ovarian was greater than 100 µM in each case. Moreover, the TGI in the assay on UACC-257 melanoma and in the assay with HL-60(TB) leukemia was greater than 100 µM throughout.
